This is an account of results in paper PMC11862924, “Phenylpyrazoles as Inhibitors of the m^6A RNA-Binding Protein YTHDF2” (JACS Au, 2025).

For one test, the system named is JAR. Nature of the test: CCK-8 proliferation assay, JAR. It is filed as cell-based. Particulars: Homo sapiens; CCK-8 kit assay, triplicates, 72 h; read-out: Anti-proliferation activity against cancer cells (IC50), JAR. The protocol:
(§1) The JAR, K562, HCT116, and MOLM13 cells were seeded in 96-well plates (3000 cells/well). After being cultured overnight, compounds were added together with the DMSO treatment (0.1%) as a control. After 72 h, CCK-8 solution (Vazyme, A311) was added, and the cells were incubated at 37 °C for 4 h. The absorbance was measured at 450 nm using a plate reader (TECAN Spark).
For orientation: Tetrazolium dyes change colour on reduction, which living cells bring about.

The next test has as its system K562. Briefly: CCK-8 proliferation assay, K562. It is filed as cell-based. Particulars: Homo sapiens, CCK-8 kit assay, triplicates, 72 h, read-out: Anti-proliferation activity against cancer cells (IC50), K562. The protocol: as §1
In test [1] the target is T1, YTHDF2 (residues 383–553) (Homo sapiens, UniProt Q9Y5A9).
T1 construct: A YTHDF2 YTH domain construct (residues 383–553) was subcloned to a pOPIN plasmid; made in house; host or cells: Escherichia coli BL21(DE3)
T1 sequence (Q9Y5A9 383-553): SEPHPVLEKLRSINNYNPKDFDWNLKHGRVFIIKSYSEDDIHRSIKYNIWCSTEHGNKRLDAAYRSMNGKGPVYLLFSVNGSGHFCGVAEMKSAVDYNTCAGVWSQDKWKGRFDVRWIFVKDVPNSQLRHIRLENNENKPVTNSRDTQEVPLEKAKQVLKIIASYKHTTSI
Briefly: Fluorescence polarization (FP) assay, YTHDF2–m6A RNA interaction. The note with it: 100 μM compound; YTHDF2 (residues 383–553, 20 nM), FAM-labeled m6A RNA probe 5 nM; average ± SD. It is filed as binding. On the procedure: The FP assay was performed in 384-well black plates (Corning no. 4514) with a total reaction volume of 15 μL. The final concentrations of protein (YTHDF2) and RNA were […], respectively, in a buffer containing 20 mM HEPES/KOH pH 7.5, 50 mM NaCl, 0.005% Tween 20, and 1 mM GSH (DTT). Compounds were incubated with protein, added FAM-m^6A RNA probe ([…](m6)ACUGUG) (purchased from IDT), and incubated at 4 °C for 30 min. The fluorescence polarization was measured using a plate reader (TECAN Spark) under an excitation wavelength of 485 nm and an emission wavelength of 535 nm with a bandwidth of 20 nm. […] The data were determined using GraphPad Prism 9.

In test [2] the target is T2, YTHDF2 (Homo sapiens, UniProt Q9Y5A9).
T2 construct: A YTHDF2 YTH domain construct (residues 383–553) was subcloned to a pOPIN plasmid; made in house; host or cells: Escherichia coli BL21(DE3)
T2 sequence (Q9Y5A9 383-553): T1 sequence (Q9Y5A9 383-553)
Also on record: method as in PMID 37236197. Particulars: read-out: IC50, YTHDF2, AlphaScreen; cited from earlier work. (In general: Bead proximity is the source of the signal in Alpha formats.)

The subject of a further test is HCT116. Nature of the test: CCK-8 proliferation assay, HCT116. It is filed as cell-based. Particulars: Homo sapiens, HCT-116; CCK-8 kit assay, triplicates, 72 h; read-out: Anti-proliferation activity against cancer cells (IC50), HCT116. On the procedure:
as §1

The target of test [3] is T2, YTHDF2. On the set-up: method as in PMID 36268123. The note with it: read-out: EC50, YTHDF2, tryptophan quenching assay; cited from earlier work.
The next test deals with T3, YTHDF1 (Homo sapiens, UniProt Q9BYJ9).
T3 construct: Plasmids of the YTH domain of YTHDF1 (residues 375–552); made in house; host or cells: Escherichia coli BL21(DE3); plasmid from the Zhou lab (Boston College)
T3 sequence (Q9BYJ9 375-552): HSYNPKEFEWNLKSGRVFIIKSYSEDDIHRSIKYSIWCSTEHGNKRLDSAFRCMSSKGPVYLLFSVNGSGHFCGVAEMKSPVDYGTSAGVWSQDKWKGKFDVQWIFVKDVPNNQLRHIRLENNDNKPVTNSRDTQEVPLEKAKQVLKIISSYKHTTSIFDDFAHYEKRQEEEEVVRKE
On the set-up: method as in PMID 36268123. Particulars: read-out: EC50, YTHDF1, tryptophan quenching assay; cited from earlier work.

The subject of the next test is METTL3. On the set-up: method as in PMID 33902106. The note with it: cited from earlier work.

In general, inhibition refers to the share of the control response that was lost under treatment. Read a low inhibition as little suppression. In the case of `N#C/C(=C\c1ccc(-c2cccc(O)c2)s1)C(N)=O` [DC-Y13–27, reference compound], the IC50 in the test with JAR was 33.3 ± 5.6 µM; in the test with K562, 24.5 ± 3.7 µM; on YTHDF2 [2], 21.8 µM; in the test on HCT116, 5.8 ± 0.9 µM. Besides, the inhibition at 100 µM in test [1] is 14.2%.

As a reminder, the EC50 is the concentration needed to bring the measured effect to its halfway point. On to `O=c1c2ccccc2[se]n1-c1ccccc1` [Ebselen], for which the EC50 is 1.7 µM at YTHDF2 [3] and 1.6 µM at YTHDF1.

Take `O=C(NCc1ccc2cc(CNCC3CCC3)[nH]c2c1)c1cc(=O)n2ccccc2n1` [STC-15]: the “inhibitory activity against METTL3 (in words)” value in the test with METTL3 was “nanomolar inhibitory activity”.
